Results: US8222241B2, “Use of dimiracetam in the treatment of chronic pain” (priority 2007, dated 2012)
Where two headings read alike, the source gives them in different places.

Experiments:
[1] = oral doses greater than 10 mg/kg (J. Med. Chem., 1993, 36:4214-4220); cited from earlier work
Cynomolgus monkeys = conditions: cynomolgus monkey, in vivo, po, 2000 mg/kg/day
Sprague Dawley rats [2] = conditions: rat, in vivo, po, 2500 mg/kg/day
rats motor coordination = test: Motor coordination in rats (rotarod); assay type: in vivo, Sprague Dawley rats
Description: The rotarod test allows the evaluation of the effects of a compound on motor coordination. Adult male Sprague Dawley rats (200-220 g, supplier Harlan, Milan) were placed on a plastic rod 6 cm in diameter and 35 cm in length, rotating at constant speed (16 rpm) at a height of 25 cm. The rod is divided in 4 equal sections, thus up to 4 animals may be tested simultaneously. The animals were required to walk against the motion of the rotating drum over 30 seconds. The time taken to fall off the rotarod was recorded as number of falls in 30 seconds, following the method of Vaught et al. 1985, Neuropharmacology 24:211-216. In each experiment motor coordination is measured before (pre-test) and after administration of the tested compound. Rats scoring less than 3 and more than 6 falls in the pretest are rejected.

[3] = test system: MIA-induced osteoarthritic pain; test: MIA-induced osteoarthritic pain in rats, paw pressure test; assay type: in vivo, Sprague Dawley rats
Description: Osteoarthritis was induced by a single administration of 2 mg (in a volume of 25 μl) of sodium 2-iodoacetate into the left knee joint of anaesthetized rats (male adult Sprague Dawley rats, 150-200 g, supplier Harlan) (Fernihough J. 2004, Pain 112:83-93). This treatment induces the progressive degeneration of the joint and the development of hyperalgesia, mimicking at the histological and behavioral levels what observed in humans. Pharmacological test was performed 7 days after treatment.
(§1) Mechanical hyperalgesia in rats (male adult Sprague Dawley rats, 150-200 g, supplier Harlan) was determined using the paw pressure test. The nociceptive threshold was determined with an analgesimeter (Ugo Basile, Italy), exerting a force that increases at constant rate (32 g/s) according to the method described by Leighton G. E. 1988, Br. J. Pharmacol. 93:553-560. The stimulus causing paw withdrawal was evaluated before and at different times after treatment. Results represent the mean of mechanical thresholds expressed as grams. To avoid any possible damage to the animal paw the maximum applied force was fixed at 240 g.

[4] = test system: oxaliplatin-induced neuropathy; test: Oxaliplatin-induced neuropathy in rats, paw pressure test; assay type: in vivo, Sprague-Dawley rats; conditions: 300 mg/kg p.o. once a day
Description: Paw pressure test was performed 4 days after the last injection (Marchand F. et al. 2003, Brain Res. 980:117-120). • Taxol: taxol neuropathy was induced by intraperitoneal administration of 0.5 mg/kg once a day, on days 1, 3, 5 and 8. […] The pharmacological test was performed 14-18 days after the last taxol injection (Polomano R. C. et al. 2001, Pain 94:293-304). • Oxaliplatin: 2.4 mg/kg were injected by intraperitoneal route for 5 consecutive days followed by 2 days suspension (one cycle). A total of 3 cycles was performed, reaching a cumulative dose of 36 mg/kg (Cavaletti G. 2001, Eur. J. Cancer 37:2457-2463). The test was performed 48 h after the last oxaliplatin injection. 1.2 Antiviral-Induced Neuropathy […] The nociceptive threshold was determined with an analgesimeter (Ugo Basile, Italy), exerting a force that increases at constant rate (32 g/s) according to the method described by Leighton G. E. 1988, Br. J. Pharmacol. 93:553-560. The stimulus causing paw withdrawal was evaluated before and at different times after treatment. Results represent the mean of mechanical thresholds expressed as grams. To avoid any possible damage to the animal paw the maximum applied force was fixed at 240 g. The effect of […] evaluated in the oxaliplatin-induced neuropathy model after repeated administration with the paw pressure test.

mice = test: Hole board test in mice; assay type: in vivo, Swiss Webster mice; conditions: 30 min after oral administration
Source text: The hole board test allows to study the behavior of rodents when confronted with a new environment (Boissier J R 1964, Therapie 19:571-583). The test enables to evaluate the initial exploratory activity of the animal and its possible variations induced by drug administration.
The hole board test uses a 40 cm square plane with 16 flush-mounted cylindrical holes (diameter 3 cm) distributed 4 by 4 in an equidistant, grid-like manner. Mice (male Swiss Webster mice weighing 25-30 g, supplier Morini) are placed one by one in the center of the board and allowed to move freely, each for a period of 5 min. Two photoelectric beams, crossing the plane from mid-point to mid-point of opposite sides, and thus dividing the plane into four equal quadrants, automatically record the movements of the animals on the plane surface. Miniature photoelectric cells in each of the 16 holes record the exploration of the holes (head plunging activity) by the mice.

rats [5] = test: Irwin test in rats; assay type: in vivo, Sprague Dawley rats
Description: To verify if the administration of the compound may induce centrally mediated side effects, adult male Sprague Dawley rats (150-200 g, supplier Harlan) were treated with dimiracetam by subcutaneous and oral routes and monitored according to the “Irwin test” protocol (Irwin 1968, Psychopharmacologia 13:222-257), a systematic and quantitative procedure for assessing the behavioral and physiological modifications induced in animals by the drug treatment.
Rats were constantly monitored for 30 min after administration. Monitoring was iterated every morning at 9 a.m. for 4 days after administration.

Sprague Dawley rats [6] = conditions: rat, in vivo, 3000 mg/kg
rats [7] = test: Rotarod/ataxia test in rats; conditions: p.o., rotating rod 10 rpm
Description: (§2) Neurological deficits were evaluated by the inability of the rats to remain on the rotating rod (10 rpm) for the test period.

ddC-induced neuropathy [8] = test: ddC-induced (antiviral-induced) neuropathy, von Frey test; assay type: in vivo, Sprague Dawley rats; conditions: 100 mg/kg
Description: (§3) Adult male Sprague Dawley rats (150-200 g, supplier Harlan) were treated by intravenous route with a single administration of 25 mg/kg of nucleoside reverse transcriptase inhibitors ddC (2′,3′-dideoxycytidine) or d4T (2′,3′-didehydro-3′-deoxythymidine). Administration of these anti-HIV drugs induced a marked allodynic response to a mechanical stimulus (Joseph E. K. 2004, Pain 107:147-158). The maximum reduction of the paw pressure threshold is developed between day 5 and day 10 after injection. The test was performed on day 10.
Rats (male adult Sprague Dawley rats, 150-200 g, supplier Harlan) were placed in a chamber with a mesh metal floor covered by a plastic dome that enabled the animals to walk freely, but not to jump. The mechanical stimulus was delivered in the mid-plantar skin of left hind paw using an electronic von Frey apparatus. The cut-off was fixed at 50 g, while the increasing force rate (ramp duration) was settled at 20 sec.

ddC-induced neuropathy [9] = test: ddC-induced neuropathy, paw pressure test; assay type: in vivo, Sprague Dawley rats; conditions: 300 mg/kg orally
Description: as §3
as §1, with “To avoid any possible damage to the animal paw the maximum applied force was fixed at 240 g.” left out
Dimiracetam is a racemic compound; the two corresponding enantiomers were synthesized and separately tested in the ddC-induced neuropathy model. The two compounds were administered orally at doses of 150 and 300 mg/kg and their antihyperalgesic activity was evaluated with the paw pressure test.

[10] = Rotarod/ataxia test in rats; conditions: rat, in vivo, po
Description: as §2

[11] = 150 mg/kg, 15-30 min after administration

O=C1CN2C(=O)CCC2N1 (racemic) [dimiracetam, 2,5-dioxohexahydro-1H-pyrrolo[1,2-a]imidazole]
nootropic activity, dose-response [1]: tends to lower
tolerability, repeated dose (Cynomolgus monkeys): well tolerated
mortality, symptomatology, normal behavior, repeated dose (Sprague Dawley rats [2]): did not produce any changes
tolerability, repeated dose (Sprague Dawley rats [2]): well tolerated
motor coordination (number of falls in 30 sec, rotarod) (rats motor coordination; 3000 mg/kg p.o., acute): does not alter rats motor coordination
reversal of MIA-induced hyperalgesia (paw pressure test) [3, 11]: statistically significant effect
reversal of MIA-induced hyperalgesia (paw pressure test) ([3]; 300 mg/kg, 60 min after administration): still statistically significant
reversal of MIA-induced hyperalgesia (paw pressure test) ([3]; 300 mg/kg, between 15 and 45 min after administration): fully reverted MIA-induced hyperalgesia
time after administration at which effect was statistically significant [4]: between 30 min and 4 h
mechanical hyperalgesia (paw pressure test) ([4]; starting three days before oxaliplatin treatment and during it): significantly reduced mechanical hyperalgesia
curiosity (number of head plungings) (mice; 3000 mg/kg p.o.): does not significantly reduce
spontaneous activity (number of movements of each animal on the plane) (mice; 3000 mg/kg p.o.): does not significantly reduce
effects on behavioral parameters (Irwin test) (rats [5]; 1000 mg/kg by subcutaneous route): did not show any effects
effects on behavioral parameters (Irwin test) (rats [5]; 3000 mg/kg p.o.): did not show any effects
tolerability / signs of toxicity, single dose (Sprague Dawley rats [6]; iv): substantially well tolerated
tolerability / signs of toxicity, single dose (Sprague Dawley rats [6]; po): substantially well tolerated
TD25 (dose causing 25% of fallen rats) (rats [7]): 6000 mg/kg
ddC-induced allodynia (von Frey mechanical threshold) (ddC-induced neuropathy [8]; 15-30 min after administration): fully reverted ddC-induced allodynia
ddC-induced allodynia (von Frey mechanical threshold) (ddC-induced neuropathy [8]; 45 min after treatment): still statistically significant

O=C1CN2C(=O)CC[C@H]2N1 (single isomer, unassigned) [(S) enantiomer]
antihyperalgesic activity (paw pressure mechanical threshold) (ddC-induced neuropathy [9]; 15 min after administration): significant effect

O=C1CN2C(=O)CC[C@@H]2N1 [(R)-dimiracetam]
reversal of MIA-induced hyperalgesia (paw pressure test) [3, 11]: statistically significant effect
reversal of MIA-induced hyperalgesia (paw pressure test) ([3]; 45 min after treatment, dose not restated): still statistically significant
antihyperalgesic activity (paw pressure mechanical threshold) (ddC-induced neuropathy [9]; 15-45 min after administration): significant reduction of the pain mechanical threshold

NCC1(CC(=O)O)CCCCC1 [Gabapentin, gabapentin, reference compound]
curiosity (number of head plungings) (mice; 1000 mg/kg): statistically significant reduction
spontaneous activity (number of movements of each animal on the plane) (mice; 1000 mg/kg): statistically significant reduction
TD16 (dose causing 16% of fallen rats) (rats [7]): 1000 mg/kg

N#Cc1cccc(N2C(=O)CN3C(=O)CCC32)c1 (stereo not shown) [I-(3-cyanophenyl)-tetrahydropyrrolo[1,2-a]imidazole-2,5-dione]
dose from which the number of falls is increased (rotarod) (rats motor coordination; rat, in vivo): 300 mg/kg
motor coordination (number of falls in 30 sec, rotarod) (rats motor coordination; starting from the dose of 300 mg/kg): significantly altered animals motor coordination

CC[C@@H](C(N)=O)N1CCCC1=O [levetiracetam]
TD50 [10]: 2000 mg/kg

CC(C)C[C@H](CN)CC(=O)O [pregabalin]
TD50 [10]: 536 mg/kg

COc1cccc(C2(O)CCCCC2CN(C)C)c1 (stereo not shown) [tramadol]
TD50 [10]: 253 mg/kg
